Experimental data taken from patent US12673022B2, “Drug delivery system using solution” (Kyoto University, priority 2018, dated 2026).

Tested on: EGFP reporter cells (C2C12 cells)
Assay: EGFP-SSA assay: uptake of Cas9 protein/gRNA complex into cells (EGFP positive rate)
Assay type: cell-based, mouse
Settings: Example 1; compound 250.0 mM; reaction solution 1 (550 mM sodium chloride, 1 mM HEPES, Cas9 protein/gRNA), 30 minutes
From the text: EGFP-SSA assay: an abbreviation of EGFP-single strand annealing assay. The reporter cassette shown in FIG. 1 is inserted in EGFP reporter cells. In the middle of the EGFP sequence of the cassette, MmDMD-Ex51 sequence is inserted. Since the presence of MmDMD-Ex51 sequence, by which EGFP ORF is divided, EGFP protein is not usually translated. However, when target sequence of MmDMD-Ex51 is cleaved by Cas9 protein/gRNA complex, the upstream region (EG part) and the downstream region (FP part) of EGFP ORF are annealed via a homology area into a single strand, with the result that a full-length EGFP ORF emerges to produce EGFP protein. Based on this principle, the ratio of the number of cells producing EGFP is checked by the EGFP-SSA assay. In this manner, the amount of Cas9 protein/gRNA complex delivered to cells can be predicted.
(§1) Cas9 protein (0.4 μg), tracrRNA (34.18 ng), MmDmd Ex51 crRNA (29.48 ng), a 1 M HEPES buffer (0.05 μL) and a 5 M aqueous sodium chloride solution (5.5 μL) were mixed and diluted with UltraPure DNase/RNase-Free Distilled Water up to a liquid volume of 37.5 μL so as to obtain final concentrations: 8 ng/μL Cas9 protein, 0.68 ng/μL tracrRNA, 0.59 ng/μL MmDmd Ex51 crRNA, 1 mM HEPES, 550 mM sodium chloride, and 250 mM compound. To this solution, a 1000 mM compound solution (12.5 μL) was added and the solution mixture was incubated at normal temperature for 15 minutes.
as §1, with “buffer (2.5” for “buffer (0.05”, “solution (4.85” for “solution (5.5”, “crRNA, 50” for “crRNA, 1”, “HEPES, 485” for “HEPES, 550”, “minutes. Note that, in the cases where the final concentrations of the compound are 0.69 mM, 25 mM, 100 mM, 125 mM, 160 mM, 200 mM and 500 mM, the compound stock solution was diluted with UltraPure DNase/RNase-Free Distilled Water up to concentrations of 2.76 mM, 100 mM, 400 mM, 500 mM, 640 mM, 800 mM and 2000 mM, respectively, and then, added. […]” for “minutes.”
Cas9 protein (2.0 μg), tracrRNA (170.9 ng), MmDmd Ex51 crRNA (147.4 ng), a 1 M HEPES buffer (12.5 μL), a 5 M aqueous sodium chloride solution (18.35 μL) and a 1 M aqueous GABA solution (62.5 μL) were mixed, diluted with UltraPure DNase/RNase-Free Distilled Water up to a liquid volume of 250 μL so as to obtain final concentrations: 8 ng/μL Cas9 protein, 0.68 ng/μL tracrRNA, 0.59 ng/μL MmDmd Ex51 crRNA, 50 mM HEPES, 250 mM GABA and 367 mM sodium chloride, and incubated at normal temperature for 15 minutes. Note that the addition amount of the 5 M aqueous sodium chloride solution was changed to 24.25 μL in the case of 485 mM sodium chloride and the addition amount was changed to 27.5 μL in the case of 550 mM sodium chloride, respectively.

Which “Compound activity: EGFP positive rate (%)” value does the source give for `NC(=O)N[C@@H](CC(=O)O)C(=O)O` [N-Carbamyl-L-aspartic acid] here?
The value was 8.53%.
